Our source for the IC50 values is ChEMBL document CHEMBL1799972, “Grandilodines A-C, biologically active indole alkaloids from Kopsia grandifolia” (J Nat Prod, 2011).

Test [1] can be described thus: Cytotoxicity in vincristine-resistant human KB/VJ300 cells in presence of 0.1 ug/ml vincristine. The format is cell-based.
The subject of a further test is KB. As to the kind of experiment: Cytotoxicity against vincristine-sensitive human KB cells in presence of 0.1 ug/ml vincristine. The format is cell-based.
The next test concerns KB/VJ300. The test is described as follows: Reversal of multidrug-resistance in vincristine-resistant human KB/VJ300 cells in presence of 0.1 ug/ml vincristine. Type of test: functional, cell-based.

SMILES strings stand for the structures.

As usually defined, the IC50 is the concentration that inhibits the measured activity by half.

With `CC[C@]1(O)C[C@H]2CN(CCc3c([nH]c4ccccc34)[C@@](C(=O)OC)(c3cc4c(cc3OC)N(C=O)[C@H]3[C@@](O)(C(=O)OC)[C@H](OC(C)=O)[C@]5(CC)C=CCN6CC[C@]43[C@@H]65)C2)C1` [VINCRISTINE], the IC50 (in test [1]; with KB) was above 25 µg/mL throughout.
On to `COC(=O)N1c2ccccc2[C@]23CCN4C(=O)C=C[C@]45CC[C@]12[C@@H](C5)C(=O)O3` [GRANDILODINE C], for which, in the test on KB/VJ300, the IC50 stood at 4.11 µg/mL.
Regarding `COC(=O)[C@@H]1C[C@]23CCCN2CC[C@]2(C(=O)OC)c4ccccc4N(C(=O)OC)[C@]12CC3` [GRANDILODINE A], in the test with KB/VJ300, the half-inhibitory concentration (IC50) stood at 4.35 µg/mL.
As for `COC(=O)N1c2ccccc2[C@]23CCN4CC=C[C@]45CC[C@]12[C@@H](C5)C(=O)O3` [LAPIDILECTINE B], the half-maximal inhibitory concentration (IC50) in the test with KB/VJ300 was found to be 0.39 µg/mL.
